# Measurements reported in ChEMBL document CHEMBL3102833, “Design and synthesis of guanylthiourea derivatives as potential inhibitors of Plasmodium falciparum dihydrofolate reductase enzyme” (Bioorg Med Chem Lett, 2014).
# Assay: Inhibition of Plasmodium falciparum recombinant dihydrofolate reductase expressed in Escherichia coli BL21 (DE3)
row,IC50 [µM],Compound
1,0.4,N=C(N=C(N)N)SCc1cccc(I)c1
2,100,N=C(N)/N=C(\N)SCc1cccc(CS/C(N)=N/C(=N)N)c1
